Source: patent US20250368678A1, “19-NOR-C3,3-DISUBSTITUTED C21-AZACYCLO-S[…] AND METHOD FOR USING SAME” (SHANDONG LUYE PHARMACEUTICAL CO., LTD., priority 2022, published 2025)

Legend:
[1] = In vitro liver microsomal stability assay, human; assay type: in vitro ADME; settings: for Remaining amount % at 60 min: Human liver microsomes 0.5 mg/mL, NADPH; for microsomal CLint at 1 µM: read-out: CLint(mic)
Procedure: (§1) 1) Preparation of working solutions of test samples: The test samples were diluted with acetonitrile to 100 M.
(§2) 2) Preparation of a working solution of liver microsomes: liver microsomes were diluted with 100 mM phosphate-buffered saline to 0.56 mg/mL.
(§3) 3) Preparation of a working solution of reduced nicotinamide adenine dinucleotide (NADPH): A proper amount of NADPH was weighed out and diluted with phosphate-buffered saline to 20 mM, and an equal volume of a 60 mM MgCl2 solution was added.
(§4) 4) Preparation of a stop solution: Tolbutamide was diluted with acetonitrile to 20 ng/mL, serving as a stop solution containing an internal standard.
(§5) 1) Incubation anti-adsorption EP tubes were prepared and labeled with species, test/control sample, time points (0, 5, 10, 20, 30, 60 min, Blank60, and NCF60), etc.
(§6) 2) 2 L of test or control sample working solution, diluted with acetonitrile to 100 M, and 178 L of liver microsome working solution were added to each tube. For the Blank60 tube, 2 L of acetonitrile was added instead of a test sample. The tubes were pre-incubated in a 37° C. water bath for about 10 min, with each sample tested in triplicate.
(§7) 3) After the pre-incubation was complete, 20 L of NADPH working solution was added to each tube except for the 0 min and NCF60 tubes to start reactions, and 20 L of phosphate-buffered saline (containing 30 mM MgCl2) was added to the NCF60 tube. In the incubation system, the final concentrations of the test and control samples were 1 M, the final concentration of liver microsomes was 0.5 mg/mL, the final concentration of NADPH was 1 mM, and the final concentration of MgCl2 was 3 mM.
(§8) 4) For the 0 min sample, 600 L of stop solution was added before adding the NADPH working solution. After each sample was incubated for its respective time, 600 L of stop solution was added to stop the reaction.
(§9) 5) After the reaction was stopped, each sample was vortexed for 30 s and then centrifuged at 13,500 rpm for 10 min. 100 L of the supernatant was transferred to an EP tube, and 100 L Milli-Q water was added. The mixture was well mixed by vortexing and analyzed by LC-MS/MS.
(§10) 6) Testosterone and dextromethorphan were used as positive control samples under the same conditions to assess the stability and reliability of the system.
(§11) Parameters of the test samples, including their half-lives, intrinsic clearance rates in liver microsomes, and hepatic intrinsic clearance rates, were calculated based on the percentage of test sample remaining.

[2] = target: T1, α1β2γ2 GABA receptors (α1β2γ2-CHO-TRex stable cell strain) (Homo sapiens, UniProt P14867+P47870); experiment: Whole-cell patch clamp, intrasynaptic functional activity (positive allosteric regulation of GABA-induced current); assay type: cell-based; settings: patch clamp -60 mV, GABA at EC10-20, α1β2γ2-CHO-TRex cells
T1 construct: expressed in transfected cells
Procedure: (§12) The α4β3δ-HEK-FlpIn-TRex stable cell strain was cultured in DMEM+10% FBS complete culture medium, with the selective antibiotics being 10 μg/mL Blasticidin, 100 µg/mL Zeocin, 100 µg/mL Hygromycin, and 0.2 μg/mL Puromycin. The α1β2γ2-CHO-TRex stable cell strain was cultured in DMEM/F12+10% FBS complete culture medium, with the selective antibiotics being 10 μg/mL Blasticidin, 100 μg/mL Zeocin, 300 μg/mL Hygromycin, and […] Puromycin.
(§13) The day before the patch clamp experiment, cells were seeded onto 12 mm polylysine-coated coverslips and then cultured in 35 mm culture dishes, and tetracycline ([…]) was added to induce the expression of GABA receptors. The extracellular fluid had the following composition (in mM): 140 NaCl, 3 KCl, 1.5 MgCl2, 2 CaCl2, 10 HEPES, and 10 Glucose. After thorough mixing, NaOH was added to adjust the pH to 7.4, and sucrose was added to adjust the osmotic pressure to 300-320 mOsm. The fluid was stored at 4° C. The electrode internal solution had the following composition (in mM): 145 KCl, 1 MgCl2, 5 EGTA, 10 HEPES, and 5 MgATP. After thorough mixing, KOH was added to adjust the pH to 7.3, and sucrose was added to adjust the osmotic pressure to 290-300 mOsm. The solution was filtered through a […] before use.
(§14) Whole-cell patch clamp recording was mainly employed in this experiment. The membrane potential was clamped at −60 mV, and receptors were activated using GABA at an EC10-20 concentration ([…]). The test compounds were dissolved in 0.1% DMSO, and perfusion was performed for 30 s prior to GABA stimulation. Finally, the positive allosteric regulating effects of the test compounds on α1β2γ2 or α4β3δ were determined.
(§15) The experimental result for each concentration was expressed as a fold increase in the GABA-induced current caused by the compound. […] At least 5 concentrations are tested to obtain a complete EC50 curve and EC50 values. All experiments were repeated on no less than 3 cells, and data processing was completed using GraphPad prism software. The dose-response curves were fitted using the Hill equation, and the half-maximal activating concentration EC50 and Emax were finally obtained.

[3] = target: T2, α4β3δ GABA receptors (α4β3δ-HEK-FlpIn-TRex stable cell strain) (Homo sapiens, UniProt P28472+P48169); experiment: Whole-cell patch clamp, extrasynaptic functional activity (positive allosteric regulation of GABA-induced current); assay type: cell-based; settings: patch clamp -60 mV, GABA at EC10-20, α4β3δ-HEK-FlpIn-TRex cells
T2 construct: expressed in transfected cells
Procedure: as §12, §13, §14, §15

[4] = In vitro liver microsomal stability assay, rat; assay type: in vitro ADME; settings: for Remaining amount % at 60 min: Rat liver microsomes 0.5 mg/mL, NADPH; for microsomal CLint at 1 µM: read-out: CLint(mic)
Procedure: as §1, §2, §3, §4, §5, §6, §7, §8, §9, §10, §11

T2 sequence (P48169 36-554): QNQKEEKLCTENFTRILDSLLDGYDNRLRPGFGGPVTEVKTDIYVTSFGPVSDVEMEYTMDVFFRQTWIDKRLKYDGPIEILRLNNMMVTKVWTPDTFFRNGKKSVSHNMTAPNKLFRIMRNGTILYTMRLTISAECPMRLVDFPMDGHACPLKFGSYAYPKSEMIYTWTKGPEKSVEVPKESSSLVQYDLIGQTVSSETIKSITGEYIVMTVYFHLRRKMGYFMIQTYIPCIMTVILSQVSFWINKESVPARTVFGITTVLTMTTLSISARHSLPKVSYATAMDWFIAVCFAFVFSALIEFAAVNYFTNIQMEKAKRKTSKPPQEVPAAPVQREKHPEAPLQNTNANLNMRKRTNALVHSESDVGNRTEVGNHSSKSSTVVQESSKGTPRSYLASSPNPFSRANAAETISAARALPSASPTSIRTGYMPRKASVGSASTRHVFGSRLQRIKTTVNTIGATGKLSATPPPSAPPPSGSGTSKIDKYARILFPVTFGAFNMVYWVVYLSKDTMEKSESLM
T2 sequence (P28472 26-473): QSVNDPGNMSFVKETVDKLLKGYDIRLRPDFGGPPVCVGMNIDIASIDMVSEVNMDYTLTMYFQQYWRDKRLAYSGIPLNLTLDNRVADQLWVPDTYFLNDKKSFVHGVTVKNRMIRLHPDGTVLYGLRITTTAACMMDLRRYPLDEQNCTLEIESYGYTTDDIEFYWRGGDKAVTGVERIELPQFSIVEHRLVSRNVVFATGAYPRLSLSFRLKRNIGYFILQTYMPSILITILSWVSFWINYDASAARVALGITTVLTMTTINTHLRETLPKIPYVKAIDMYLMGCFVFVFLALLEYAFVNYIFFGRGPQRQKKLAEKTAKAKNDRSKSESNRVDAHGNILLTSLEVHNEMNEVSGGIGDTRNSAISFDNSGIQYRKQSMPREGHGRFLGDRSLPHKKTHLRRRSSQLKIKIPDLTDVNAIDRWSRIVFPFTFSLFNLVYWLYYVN
T2 sequence (O14764 25-452 partner): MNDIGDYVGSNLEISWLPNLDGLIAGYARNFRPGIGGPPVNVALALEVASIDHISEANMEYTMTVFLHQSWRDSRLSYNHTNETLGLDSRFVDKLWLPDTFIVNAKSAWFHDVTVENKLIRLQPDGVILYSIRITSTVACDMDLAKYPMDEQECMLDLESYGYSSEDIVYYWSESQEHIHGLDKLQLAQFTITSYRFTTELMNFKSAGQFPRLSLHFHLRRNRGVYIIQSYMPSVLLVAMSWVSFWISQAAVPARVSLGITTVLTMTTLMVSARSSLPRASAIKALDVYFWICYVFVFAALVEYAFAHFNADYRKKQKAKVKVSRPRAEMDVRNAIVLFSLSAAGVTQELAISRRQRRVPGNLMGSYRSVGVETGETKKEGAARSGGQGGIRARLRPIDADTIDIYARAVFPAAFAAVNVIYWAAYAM
T1 sequence (P14867 28-456): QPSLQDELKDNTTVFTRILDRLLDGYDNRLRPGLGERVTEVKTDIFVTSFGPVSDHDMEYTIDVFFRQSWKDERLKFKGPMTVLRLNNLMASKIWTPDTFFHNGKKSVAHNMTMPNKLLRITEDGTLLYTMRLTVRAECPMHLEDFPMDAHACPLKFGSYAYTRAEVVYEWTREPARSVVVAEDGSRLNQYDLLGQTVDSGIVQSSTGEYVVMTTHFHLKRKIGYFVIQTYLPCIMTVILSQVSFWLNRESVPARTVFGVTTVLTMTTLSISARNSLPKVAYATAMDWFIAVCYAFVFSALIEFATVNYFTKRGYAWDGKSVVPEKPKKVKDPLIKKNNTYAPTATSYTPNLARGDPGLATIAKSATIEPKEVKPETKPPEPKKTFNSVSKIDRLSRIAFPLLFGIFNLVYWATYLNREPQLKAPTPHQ
T1 sequence (P47870 25-512 limits assumed): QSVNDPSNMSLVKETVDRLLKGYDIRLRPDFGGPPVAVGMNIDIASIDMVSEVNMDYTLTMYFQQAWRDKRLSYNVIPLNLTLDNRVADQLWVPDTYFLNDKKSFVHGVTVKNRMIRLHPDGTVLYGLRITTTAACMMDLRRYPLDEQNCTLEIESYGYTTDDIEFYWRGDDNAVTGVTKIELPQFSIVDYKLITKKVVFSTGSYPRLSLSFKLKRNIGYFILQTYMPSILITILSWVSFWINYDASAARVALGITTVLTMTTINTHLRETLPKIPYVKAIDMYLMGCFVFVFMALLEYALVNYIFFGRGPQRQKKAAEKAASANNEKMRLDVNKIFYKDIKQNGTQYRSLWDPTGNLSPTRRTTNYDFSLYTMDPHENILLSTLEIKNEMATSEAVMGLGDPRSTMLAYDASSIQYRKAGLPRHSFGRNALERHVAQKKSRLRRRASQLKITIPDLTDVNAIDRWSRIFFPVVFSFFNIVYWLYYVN
T1 sequence (P18507 40-475 partner): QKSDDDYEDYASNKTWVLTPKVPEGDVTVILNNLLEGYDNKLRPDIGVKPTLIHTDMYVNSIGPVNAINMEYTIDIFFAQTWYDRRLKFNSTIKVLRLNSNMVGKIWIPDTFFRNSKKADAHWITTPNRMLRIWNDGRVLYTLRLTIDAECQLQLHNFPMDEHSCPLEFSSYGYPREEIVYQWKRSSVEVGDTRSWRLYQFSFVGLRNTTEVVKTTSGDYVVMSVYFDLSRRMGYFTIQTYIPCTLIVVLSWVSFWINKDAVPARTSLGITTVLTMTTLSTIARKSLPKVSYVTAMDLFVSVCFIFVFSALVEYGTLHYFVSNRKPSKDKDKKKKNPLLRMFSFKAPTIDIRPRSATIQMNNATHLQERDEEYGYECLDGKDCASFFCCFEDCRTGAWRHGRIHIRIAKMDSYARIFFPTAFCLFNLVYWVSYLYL

Row | SMILES | CLint scaled at 1 µM ([1]; Human liver microsomes) | half-life at 1 µM ([1]; Human liver microsomes) | Remaining amount % at 60 min [1] | microsomal CLint at 1 µM ([1]; Human liver microsomes) | EC50 [2] | Emax [2] | EC50 [3] | Emax [3] | CLint scaled at 1 µM ([4]; Rat liver microsomes) | half-life at 1 µM ([4]; Rat liver microsomes) | Remaining amount % at 60 min [4] | microsomal CLint at 1 µM ([4]; Rat liver microsomes) | T1/2 ([1]; Human liver microsomes) | T1/2 ([4]; Rat liver microsomes)
1 | C[C@@]1(O)CC[C@H]2[C@H](CC[C@@H]3[C@@H]2CC[C@]2(C)[C@@H](C(=O)Cn4ccn(-c5cccc(F)c5)c4=O)CC[C@@H]32)C1 [Compound 11] | 3.78 L/h/kg | 19.8 min | 28.02% | 70 µL/min/mg | 0.241 µM | 594% | 0.139 µM | 552% | 16.6 L/h/kg | 9 min | 9.24% | 153 µL/min/mg | – | –
2 | C[C@@]1(O)CC[C@H]2[C@H](CC[C@@H]3[C@@H]2CC[C@]2(C)[C@@H](C(=O)Cn4cnn(-c5cccc(F)c5)c4=O)CC[C@@H]32)C1 [Compound 1] | 0.238 L/h/kg | 330 min | 89.0% | 4.2 µL/min/mg | 0.056 µM | 566% | 0.01 µM | 440% | 2.62 L/h/kg | 57.3 min | 44.5% | 24.2 µL/min/mg | – | –
3 | C[C@@]1(O)CC[C@H]2[C@H](CC[C@@H]3[C@@H]2CC[C@]2(C)[C@@H](C(=O)Cn4cnn(-c5ccc(F)cc5F)c4=O)CC[C@@H]32)C1 [Compound 25] | 1.5 L/h/kg | 49.5 min | 42% | 28 µL/min/mg | 0.784 µM | 692% | 0.089 µM | 542% | 6.24 L/h/kg | 24.1 min | 16.2% | 58 µL/min/mg | – | –
4 | C[C@@]1(O)CC[C@H]2[C@H](CC[C@@H]3[C@@H]2CC[C@]2(C)[C@@H](C(=O)Cn4c(=O)n(-c5ccccc5)c5ccccc54)CC[C@@H]32)C1 [Compound 13] | – | – | – | – | – | 305% | – | 470% | – | – | – | – | – | –
5 | C[C@@]1(O)CC[C@H]2[C@H](CC[C@@H]3[C@@H]2CC[C@]2(C)[C@@H](C(=O)Cn4ncn(-c5ccc(F)cc5)c4=O)CC[C@@H]32)C1 [Compound 9] | 2.28 L/h/kg | – | 24.73% | 42 µL/min/mg | 0.0124 µM | 294% | 0.148 µM | 428% | 14.3 L/h/kg | – | 4.19% | 133 µL/min/mg | 32.8 min | 10.3 min
6 | Cc1cc(-n2ncn(CC(=O)[C@H]3CC[C@H]4[C@@H]5CC[C@@H]6C[C@](C)(O)CC[C@@H]6[C@H]5CC[C@]34C)c2=O)ccn1 [Compound 36] | 3.18 L/h/kg | 23 min | 15.9% | 59 µL/min/mg | 0.119 µM | 871% | 0.099 µM | 745% | 7.5 L/h/kg | 29 min | 12.2% | 69 µL/min/mg | – | –
7 | C[C@@]1(O)CC[C@H]2[C@H](CC[C@@H]3[C@@H]2CC[C@]2(C)[C@@H](C(=O)Cn4cnn(-c5cc(F)cc(F)c5)c4=O)CC[C@@H]32)C1 [Compound 28] | 1.26 L/h/kg | 58.2 min | 61.6% | 24 µL/min/mg | 0.154 µM | – | 0.035 µM | 441% | 2.58 L/h/kg | 57.8 min | 48.8% | 24 µL/min/mg | – | –
8 | C[C@@]1(O)CC[C@H]2[C@H](CC[C@@H]3[C@@H]2CC[C@]2(C)[C@@H](C(=O)Cn4cnn(-c5ccnc(C(F)F)c5)c4=O)CC[C@@H]32)C1 [Compound 37] | – | – | – | – | – | 600% | – | 432% | – | – | – | – | – | –
9 | C[C@@]1(O)CC[C@H]2[C@H](CC[C@@H]3[C@@H]2CC[C@]2(C)[C@@H](C(=O)Cn4cnn(-c5cc(F)cc(C#N)c5)c4=O)CC[C@@H]32)C1 [Compound 44] | 0.72 L/h/kg | 102 min | 66.67% | 14 µL/min/mg | – | 518% | – | 546% | 1.62 L/h/kg | 93.6 min | 64.82% | 15 µL/min/mg | – | –
10 | C[C@@]1(O)CC[C@@]2(C)[C@@H](CC[C@@H]3[C@@H]2CC[C@]2(C)[C@@H](C(=O)Cn4cnn(-c5ccnc(F)c5)c4=O)CC[C@@H]32)C1 [Compound 42] | – | – | – | – | 0.28 µM | 736% | 0.143 µM | 507% | – | – | – | – | – | –
11 | Cc1cc(-n2ncn(CC(=O)[C@H]3CC[C@H]4[C@@H]5CC[C@@H]6C[C@](C)(O)CC[C@@H]6[C@H]5CC[C@]34C)c2=O)cc(C)n1 [Compound 40] | – | – | – | – | – | 691% | – | 563% | – | – | – | – | – | –
12 | C[C@@]1(O)CC[C@H]2[C@H](CC[C@@H]3[C@@H]2CC[C@]2(C)[C@@H](C(=O)Cn4cnn(-c5cc(F)ccn5)c4=O)CC[C@@H]32)C1 [Compound 35] | – | – | – | – | 0.34 µM | 446% | 0.068 µM | 720% | – | – | – | – | – | –
